Source: PubChem BioAssay (NCI)
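These data come from cells grown in 96-well plates and exposed to compound for 48 hours at five concentrations. TGI: total growth inhibition.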

How the values were obtained:
Assay in all cases: DTP human tumour cell line panel, 48 h
SNB-75 CNS = tested on: SNB-75 CNS
MCF7 breast = tested on: MCF7 breast
A498 renal = tested on: A498 renal
IGROV1 ovarian = tested on: IGROV1 ovarian
UACC-62 melanoma = tested on: UACC-62 melanoma
UACC-257 melanoma = tested on: UACC-257 melanoma
EKVX NSCLC = tested on: EKVX NSCLC
SNB-19 CNS = tested on: SNB-19 CNS
HCT-15 colon = tested on: HCT-15 colon
NCI-H226 lung = tested on: NCI-H226 lung
MDA-N = tested on: MDA-N
HCT-116 colon = tested on: HCT-116 colon
CCRF-CEM leukemia = tested on: CCRF-CEM leukemia
SW-620 colon = tested on: SW-620 colon
NCI-H522 lung = tested on: NCI-H522 lung
BT-549 breast = tested on: BT-549 breast
DU-145 prostate = tested on: DU-145 prostate
PC-3 prostate = tested on: PC-3 prostate
HOP-62 NSCLC = tested on: HOP-62 NSCLC
SF-295 CNS = tested on: SF-295 CNS
SK-MEL-5 melanoma = tested on: SK-MEL-5 melanoma
KM12 colon = tested on: KM12 colon
786-0 renal = tested on: 786-0 renal
SR leukemia = tested on: SR leukemia
ACHN renal = tested on: ACHN renal
OVCAR-3 ovarian = tested on: OVCAR-3 ovarian
HT29 colon = tested on: HT29 colon
NCI-H460 lung = tested on: NCI-H460 lung
SF-539 CNS = tested on: SF-539 CNS
SN12C renal = tested on: SN12C renal
HOP-92 NSCLC = tested on: HOP-92 NSCLC
NCI-H23 lung = tested on: NCI-H23 lung
TK-10 renal = tested on: TK-10 renal
OVCAR-8 ovarian = tested on: OVCAR-8 ovarian
MOLT-4 leukemia = tested on: MOLT-4 leukemia
LOX IMVI melanoma = tested on: LOX IMVI melanoma
SK-OV-3 ovarian = tested on: SK-OV-3 ovarian
T-47D breast = tested on: T-47D breast
NCI/ADR-RES ovarian = tested on: NCI/ADR-RES ovarian
SK-MEL-28 melanoma = tested on: SK-MEL-28 melanoma
CAKI-1 renal = tested on: CAKI-1 renal
HCC-2998 colon = tested on: HCC-2998 colon
COLO 205 colon = tested on: COLO 205 colon
K-562 leukemia = tested on: K-562 leukemia
MDA-MB-231 breast = tested on: MDA-MB-231 breast
M14 melanoma = tested on: M14 melanoma
U251 CNS = tested on: U251 CNS
OVCAR-4 ovarian = tested on: OVCAR-4 ovarian
SF-268 CNS = tested on: SF-268 CNS
OVCAR-5 ovarian = tested on: OVCAR-5 ovarian
UO-31 renal = tested on: UO-31 renal
MDA-MB-435 = tested on: MDA-MB-435
MALME-3M melanoma = tested on: MALME-3M melanoma
A549 NSCLC = tested on: A549 NSCLC
HS 578T breast = tested on: HS 578T breast

Measured: TGI

Clc1ccc(Nc2ncco2)cc1Cl
> 10 µM: all assays above
